Test results: ChEMBL document CHEMBL5500375, “Design, synthesis, and evaluation of N1,N3-dialkyldioxonaphthoimidazoliums as antibacterial agents against methicillin-resistant Staphylococcus aureus” (Eur J Med Chem, 2024)
Activity calls are given as the source filed them. The rule behind the calls is not given here.

Key:
[1] = Therapeutic index, ratio of IC50 for HEK293 cells to MIC for […] activity against methicillin-resistant Staphylococcus aureus SA3; type: toxicity; settings: human, read-out: TI
Staphylococcus aureus [2] = assay: Induction of ROS generation in methicillin-resistant Staphylococcus aureus SA3 using hydroxyphenyl fluorescein at 0.19 ug/ml under anaerobic condition; type: functional, organism-based; settings: dose 0.19 µg/ml
Staphylococcus aureus [3] = assay: Reduction in virulent activity of methicillin-resistant Staphylococcus aureus SA3 infected in dorsal thorax of Drosophila melanogaster strain Oregon R at 0.2 mg/ml measured upto 72 hrs; type: functional, organism-based
Staphylococcus aureus [4] = assay: Antibacterial agents against c5-resistant mutant of methicillin-resistant Staphylococcus aureus SA3 m1 assessed as absence of growth at 0.19 ug/ml measured after overnight incubation under anaerobic condition in presence of N-acetylcysteine by micro-dilution method; type: functional, organism-based; settings: dose 0.19 µg/ml
Staphylococcus aureus [5] = assay: Induction of ROS generation in methicillin-resistant Staphylococcus aureus USA300 using hydroxyphenyl fluorescein at 0.19 ug/ml under anaerobic condition; type: functional, organism-based; settings: dose 0.19 µg/ml
Staphylococcus aureus [6] = assay: Antibacterial activity against methicillin-resistant Staphylococcus aureus SA3 assessed as fold increase in MIC measured after 16 passages to MIC during first passage; type: functional
Bacillus subtilis = assay: Antibacterial agents against Bacillus subtilis PS380 assessed as absence of growth measured after 18 hrs by micro-dilution method; type: functional
Staphylococcus aureus [7] = assay: Antibacterial agents against methicillin-sensitive Staphylococcus aureus SA1 assessed as absence of growth at 0.19 ug/ml measured after overnight incubation under anaerobic condition in presence of N-acetylcysteine by micro-dilution method; type: functional, organism-based; settings: dose 0.19 µg/ml
Staphylococcus aureus [8] = assay: Antibacterial activity against methicillin-resistant Staphylococcus aureus SA3 assessed as resistance by measuring antibacterial activity after 10 passages at 0.39 ug/ml by emergence of bacterial resistance assay; type: functional, organism-based; settings: dose 0.39 µg/ml
Staphylococcus aureus [9] = assay: Antibacterial agents against c5-resistant mutant of methicillin-resistant Staphylococcus aureus SA3 m2 assessed as absence of growth at 0.19 ug/ml measured after overnight incubation under anaerobic condition in presence of N-acetylcysteine by micro-dilution method; type: functional, organism-based; settings: dose 0.19 µg/ml
Staphylococcus aureus [10] = assay: Antibacterial activity against c5-resistant mutant of methicillin-resistant Staphylococcus aureus SA3 m6 assessed as fold increase in MIC measured after 12 passages to MIC during first passage; type: functional
Staphylococcus aureus [11] = assay: Antibacterial agents against methicillin-sensitive Staphylococcus aureus SA1 assessed as absence of growth measured after 18 hrs by micro-dilution method; type: functional
Pseudomonas aeruginosa [12] = assay: Antibacterial agents against gram negative Pseudomonas aeruginosa PA14 assessed as reduction in colony forming unit at 0.78 ug/ml measured upto 10 hrs in presence of 0.05 ug/ml Polymyxin B by LB agar medium method; type: functional, organism-based; settings: dose 0.78 µg/ml
[13] = Metabolic stability in human liver microsomes assessed as intrinsic clearance at 2 uM preincubated for 5 mins followed by NADPH addition and measured for 35 mins by LC/MS analysis; type: ADME, Microsome; settings: read-out: CLH
[14] = In vivo toxicity in Drosophila melanogaster strain Oregon R assessed as survival rate at 0.1 to 1 mg/ml measured upto 72 hrs relative to control; type: organism-based; settings: Oregon R, at 0.1 to 1 mg/mL, dose 0.1-1 mg/ml
Escherichia coli [15] = assay: Antibacterial agents against gram negative Escherichia coli MG1655 assessed as reduction in colony forming unit at 0.78 ug/ml measured upto 10 hrs in presence of 0.2 ug/ml Polymyxin B by LB agar medium method; type: functional; settings: dose 0.78 µg/ml
Staphylococcus aureus [16] = assay: Anti-biofilim activity against methicillin-sensitive Staphylococcus aureus Newman assessed decrease in biofilm growth at 1 to 10 times of MIC concentration measured after 12 to 24 hrs incubation; type: functional, organism-based; settings: time 12-24 hrs
Staphylococcus aureus [17] = assay: Antibacterial agents against c5-resistant mutant of methicillin-resistant Staphylococcus aureus SA3 m4 assessed as absence of growth at 0.19 ug/ml measured after overnight incubation under anaerobic condition in presence of N-acetylcysteine by micro-dilution method; type: functional, organism-based; settings: dose 0.19 µg/ml
Staphylococcus aureus [18] = assay: Induction of ROS generation in methicillin-resistant Staphylococcus aureus USA300 using hydroxyphenyl fluorescein at 0.09 ug/ml under anaerobic condition; type: functional, organism-based; settings: dose 0.09 µg/ml, TDE = time-dependent effect
Staphylococcus aureus [19] = assay: Antibacterial agents against c5-resistant mutant of methicillin-resistant Staphylococcus aureus SA3 m1 assessed as absence of growth measured after 18 hrs by micro-dilution method; type: functional
Staphylococcus aureus [20] = assay: In vivo antibacterial activity against methicillin-resistant Staphylococcus aureus SA3 infected in dorsal thorax of Drosophila melanogaster strain Oregon R assessed as survival time of Drosophila at 0.2 mg/ml measured upto 72 hrs; type: functional
Staphylococcus aureus [21] = assay: Antibacterial activity against methicillin-resistant Staphylococcus aureus SA3 assessed as resistance by measuring antibacterial activity after 11 to 20 passages at 0.39 ug/ml by emergence of bacterial resistance assay; type: functional, organism-based; settings: dose 0.39 µg/ml
Staphylococcus aureus [22] = assay: Antibacterial agents against methicillin-resistant Staphylococcus aureus USA300 assessed as absence of growth measured after 18 hrs by micro-dilution method; type: functional
Escherichia coli [23] = assay: Antibacterial agents against gram negative Escherichia coli MG1655 assessed as reduction in colony forming unit at 0.78 ug/ml measured upto 10 hrs by LB agar medium method; type: functional, organism-based; settings: dose 0.78 µg/ml
Staphylococcus aureus [24] = assay: Antibacterial agents against c5-resistant mutant of methicillin-resistant Staphylococcus aureus SA3 m4 assessed as absence of growth measured after 18 hrs by micro-dilution method; type: functional
Staphylococcus aureus [25] = assay: Anti-biofilim activity against methicillin-sensitive Staphylococcus aureus SA1 assessed decrease in biofilm growth at 1 to 10 times of MIC concentration measured after 12 to 24 hrs incubation; type: functional, organism-based; settings: time 12-24 hrs
Staphylococcus aureus [26] = assay: Antibacterial agents against methicillin-resistant Staphylococcus aureus SA3 assessed as absence of growth measured after 18 hrs by micro-dilution method; type: functional
Staphylococcus aureus [27] = assay: Anti-biofilim activity against methicillin-resistant Staphylococcus aureus USA300 assessed decrease in biofilm growth at 1 to 10 times of MIC concentration measured after 12 to 24 hrs incubation; type: functional, organism-based; settings: time 12-24 hrs
Staphylococcus aureus [28] = assay: Antibacterial agents against c5-resistant mutant of methicillin-resistant Staphylococcus aureus SA3 m2 assessed as absence of growth measured after 18 hrs by micro-dilution method; type: functional
[29] = Cytotoxicity against human HEK293 cells assessed as cell survival measured after 72 hrs incubation by Cell Titer-Glo luminescent assay; type: toxicity, cell-based
Staphylococcus aureus [30] = assay: Bactericidal activity against methicillin-resistant Staphylococcus aureus SA3 assessed as as reduction in colony forming unit at 0.78 ug/ml measured within 10 hrs by time-kill assay; type: functional; settings: dose 0.78 µg/ml
[31] = Cytotoxicity against human HDFa cells assessed as cell survival measured after 72 hrs incubation by Cell Titer-Glo luminescent assay; type: toxicity, cell-based
Pseudomonas aeruginosa [32] = assay: Antibacterial agents against gram negative Pseudomonas aeruginosa PA14 assessed as reduction in colony forming unit at 0.78 ug/ml measured upto 10 hrs in presence of 0.2 ug/ml Polymyxin B by LB agar medium method; type: functional; settings: dose 0.78 µg/ml
Staphylococcus aureus [33] = assay: Antibacterial activity against c5-resistant mutant of methicillin-resistant Staphylococcus aureus SA3 m6 assessed as resistance by measuring antibacterial activity after 20 passages at 200 ug/ml by emergence of bacterial resistance assay; type: functional, organism-based; settings: dose 200.0 µg/ml
Staphylococcus aureus [34] = assay: Antibacterial agents against c5-resistant mutant of methicillin-resistant Staphylococcus aureus SA3 m6 assessed as absence of growth at 0.19 ug/ml measured after overnight incubation under anaerobic condition in presence of N-acetylcysteine by micro-dilution method; type: functional, organism-based; settings: dose 0.19 µg/ml

With `CCCCCCCCn1c2c([n+](Cc3ccccc3)c1C)C(=O)c1ccccc1C2=O.[Br-]` the selectivity ratio [1] was 0.8, the Activity (Staphylococcus aureus [2]) was “Active” and the Activity (Staphylococcus aureus [3]) was “inactive”. For the same molecule, the Activity (Staphylococcus aureus [4]) was “inactive”, the Activity (Staphylococcus aureus [5]) was “Active” and the “fold change (FC)” value (Staphylococcus aureus [6]) was 4. For the same molecule, the MIC (Bacillus subtilis) was 0.39 µg/mL, the Activity (Staphylococcus aureus [7]) was “inactive” and the Activity (Staphylococcus aureus [8]) was “Active”. For the same molecule, the Activity (Staphylococcus aureus [9]) was “inactive”, the “fold change (FC)” value (Staphylococcus aureus [10]) was 2 and the MIC (Staphylococcus aureus [11]) was 0.19 µg/mL. For the same molecule, the Activity (Pseudomonas aeruginosa [12]) was “inactive”, the CLint scaled at 2 µM [13] was 39 mL/min/kg and the survival at 72 h [14] was 75%. The Activity (Escherichia coli [15]) was 4 log10CFU/ml, the Activity (Staphylococcus aureus [16]) was “Active” and the Activity (Staphylococcus aureus [17]) was “inactive”. The Activity (Staphylococcus aureus [18]) was “Tde”, the MIC (Staphylococcus aureus [19]) was 6.25 µg/mL and the Time (Staphylococcus aureus [20]) was 62 h. For the same molecule, the Activity (Staphylococcus aureus [21]) was “inactive”, the MIC (Staphylococcus aureus [22]) was 0.39 µg/mL and the Activity (Escherichia coli [23]) was “inactive”. For the same molecule, the MIC (Staphylococcus aureus [24]) was 6.25 µg/mL, the Activity (Staphylococcus aureus [25]) was “Active” and the MIC (Staphylococcus aureus [26]) was 0.39 µg/mL. The Activity (Staphylococcus aureus [27]) was “Active”, the MIC (Staphylococcus aureus [28]) was 6.25 µg/mL and the IC50 at 72 h [29] was 293 nM. The Activity (Staphylococcus aureus [30]) was 3 log10CFU/ml, the IC50 at 72 h [31] was 1060 nM and the Activity (Pseudomonas aeruginosa [32]) was greater than 4 log10CFU/ml. For the same molecule, the Activity (Staphylococcus aureus [33]) was “inactive” and the Activity (Staphylococcus aureus [34]) was “inactive”.
